Results on one molecule are retold here after patent US7122209B2, “Oral compositions for the treatment of non-diabetic obese mammals, including humans” (Quimica Farmaceutica Bayer S.A., priority 2001, dated 2006).

Data set [1] concerns cafeteria-fed rats. Put plainly: Diet-induced obesity (cafeteria diet) rat model, oral tungstate in drinking water. It is filed as in vivo, male Wistar rats. An excerpt:
The so-called “cafeteria diet” consists of an offering of freshly and highly palatable supermarket food items with high fat and/or carbohydrate content in addition to standard laboratory chow. […] Moreover, it is also known that ingestion of a cafeteria diet results in increased thermogenesis and fat deposition.
(§1) For the present experiments, male Wistar rats (IFFA CREDO), weighing 0.20–0.22 kg, were caged individually in a 12:12-h light-dark cycle, temperature and humidity controlled environment. After an adaptation period of 1 week the animals were divided into two dietary groups. One group was fed standard chow diet (2.7% in fat content, type AO4 from Panlab, Barcelona, Spain) and the second group was fed a cafeteria diet (30% in fat content). The cafeteria diet consisted of a daily offering of cookies, liver pate, bacon, standard chow and whole milk supplemented with 333 g/l sucrose and 10 g/l of a mineral and vitamin complex (Gevral, Cynamid Ibérica, Madrid, Spain). All the food items were weighed and presented in excess.
An initial set of forty rats were divided into two sets of dietary conditions, control (standard diet, n=15) and cafeteria (cafeteria diet, n=25), and fed for 30 days. In order to evaluate the effects of tungstate treatment, animals from each condition were divided into two new subsets: tungstate treated and tungstate untreated groups (simply treated and untreated in the following). The treated rats were given a solution of 2 mg/ml of sodium tungstate dihydrate in distilled water.
The treatment was carried out for 32 days. Blood glucose measurements as well as blood samples were collected before (days 0–30), during (days 31–62) and at the end of the experimental period. Selective food items consumption (corrected by the amount of water lost for each) and the weight of all animals were recorded daily.
At the end of the treatment period, rats from treated (n=8) and untreated (n=7) cafeteria-fed groups and rats from both treated (n=3) and untreated (n=3) standard-fed groups were killed and several tissues (gastrocnemius muscle, intercapular brown adipose tissue (iBAT), epididimal white adipose tissue (WAT), liver, pancreas and brain) were excised, weighed, cleaned and rapidly frozen in liquid nitrogen or fixed in formol 10% for future studies.
Remaining rats (n=19) were withdrawn the tungstate treatment, but maintained the dietary conditions, in order to start a 35 day recovery period. After this time animals were killed and processed as above. Selective food items consumption (corrected by the amount of water lost for each) and the weight of all animals were recorded daily.
The data obtained in this study allowed to establish an obesity criteria. […]

In data set [2] the test system is standard-fed rats. Nature of the data set: Standard-fed rats, oral tungstate in drinking water. It is filed as in vivo, male Wistar rats.
Excerpt: as §1
An initial set of forty rats were divided into two sets of dietary conditions, control (standard diet, n=15) and cafeteria (cafeteria diet, n=25), and fed for 30 days. […]
The treatment was carried out for 32 days. […] Selective food items consumption (corrected by the amount of water lost for each) and the weight of all animals were recorded daily. […]
Remaining rats (n=19) were withdrawn the tungstate treatment, but maintained the dietary conditions, in order to start a 35 day recovery period. […] Selective food items consumption (corrected by the amount of water lost for each) and the weight of all animals were recorded daily.

Data set [3] is described as follows: Solubility in water (description). It counts as physicochemical.

Turning to `O.O.[Na+].[Na+].[O]=[W](=[O])([O-])[O-]` [sodium tungstate dihydrate], the food intake entry in data set [1] (cafeteria diet rat model, during weight loss) was “without decrease of food intake”. Further, the body weight increase entry was “significantly diminished body weight increase” in data set [1] (cafeteria-fed rats, 2 mg/ml sodium tungstate dihydrate in distilled water, treatment period days 31-62, vs untreated) and “significantly diminished body weight increase” in data set [2] (2 mg/ml sodium tungstate dihydrate in distilled water, treatment period days 31-62, vs untreated). Also, the “body weight increase difference between treated and untreated rats at day 97” value in data set [1] (cafeteria-fed rats, end of 35 day recovery period) is given as “quite important”. The “body weight after withdrawal of treatment (reversibility)” value is “started to gain body weight quickly” in data set [1] (cafeteria-fed rats, recovery period days 63-97) and “started to gain body weight quickly” in data set [2] (recovery period days 63-97). In data set [3], the solubility in water entry is “easily dissolved in water”.
